One experiment has as its system DLD1 WT cells. The experiment in a line: DLD1 viability assay (CellTiter-Glo, 7 days), DLD1 WT. It counts as cell-based. The procedure: (§1) The seeding densities are pre-determined from the growth curve kinetics performed to ensure log linear phase of cell growth for these 2 cell lines. These assay plates are then placed in the incubator at 37° C., 5% CO2, relative humidity>90% for a few hours before addition of test compounds. Compounds are dispensed using the Tecan HPD300 or Echo based on the plate map in the appropriate wells of the 384-well plates. […] After addition of the test compounds, the plates are incubated at 37° C., 5% CO2, relative humidity>90% for 7 days. CellTiter-Glo (Promega Cat. No. G7573), ATP detection reagent is prepared according to manufacturer's specifications. Cell assay plates are removed from incubator and bring to room temperature (RT) by letting them sit at bench top for at least 15 min. Using the MultiDrop liquid handler or a multichannel pipette, 35 μL/well of CTG is added and the plates are then placed shakes for 5 seconds, RT. These plates are then incubated for 30 minutes in the dark at RT before measuring luminescence using Spectramax/Enspire/Ensight/Envision/PheraSTAR.
(In general: ATP-based viability assays read luminescence as a measure of living cells.)

The next experiment deals with DLD1 BRCA2 (−/−) cells. The experiment in a line: DLD1 viability assay (CellTiter-Glo, 7 days), DLD1 BRCA2 (−/−). Format: cell-based. Particulars: read-out: Viability IC50 (μM) DLD1 BRCA2 null. As for the experimental part: as §1

From US20260015360A1 (MOMA Therapeutics, Inc., priority 2023, published 2026) come the findings set out here.

Where two headings read alike, the source gives them in different places.

As a reminder, the IC50 is the midpoint of a concentration-inhibition curve. As for `COc1cnc(Cl)cc1-c1cc(C)ncc1C(=O)Nc1nc2ncc(N3CCC(OC)C(F)(F)C3)nc2s1` (single isomer, unassigned) [Example 444, (R or S)-2′-chloro-N-(6-(3,3-difluoro-4-methoxypiperidin-1-yl)thiazolo[4,5-b]pyrazin-2-yl)-5′-methoxy-6-methyl-[4,4′-bipyridine]-3-carboxamide], the IC50 in the experiment on DLD1 WT cells (Homo sapiens, DLD-1, 168 h) was > 10 µM; in the experiment on DLD1 BRCA2 (−/−) cells (Homo sapiens, DLD-1, 168 h) it was 0.001 to 0.1 µM.
`COc1cnc(Cl)cc1-c1cc(C)ncc1C(=O)Nc1nc2ncc(C3=CCC(C)(C#N)CC3)nc2s1` (centres unmarked) [Example 407, 2′-chloro-N-(6-(4-cyano-4-methylcyclohex-1-en-1-yl)thiazolo[4,5-b]pyrazin-2-yl)-5′-methoxy-6-methyl-[4,4′-bipyridine]-3-carboxamide]: the IC50 is > 10 µM in the experiment with DLD1 WT cells (Homo sapiens, DLD-1, 168 h) and 0.001 to 0.1 µM with DLD1 BRCA2 (−/−) cells (Homo sapiens, DLD-1, 168 h).
On to `COc1cnc(Cl)cc1-c1cc(C)ncc1C(=O)Nc1nc2ncc(N3CCC(C)CC3)nc2s1` [Example 474, 2′-chloro-5′-methoxy-6-methyl-N-(6-(4-methylpiperidin-1-yl)thiazolo[4,5-b]pyrazin-2-yl)-[4,4′-bipyridine]-3-carboxamide], for which the IC50 with DLD1 WT cells (Homo sapiens, DLD-1, 168 h) lay in the range of 7.5 to 10 µM; with DLD1 BRCA2 (−/−) cells (Homo sapiens, DLD-1, 168 h), 0.001 to 0.1 µM.
In the same order, the values of `COc1cnc(Cl)cc1-c1cc(C)ncc1C(=O)Nc1nc2ncc(N3CC[C@](C)(O)[C@H](F)C3)nc2s1` (single isomer, unassigned) [Example 375, 2′-chloro-N-(6-((3R or S,4S or R)-3-fluoro-4-hydroxy-4-methylpiperidin-1-yl)thiazolo[4,5-b]pyrazin-2-yl)-5′-methoxy-6-methyl-[4,4′-bipyridine]-3-carboxamide] are > 10 µM and 0.001 to 0.1 µM.
With `COc1cnc(Cl)cc1-c1cc(C)ncc1C(=O)Nc1nc2ncc(N3C[C@@H](C)OC[C@H]3C)nc2s1` [Example 409, 2′-chloro-N-(6-((2R,5R)-2,5-dimethylmorpholino)thiazolo [4,5-b]pyrazin-2-yl)-5′-methoxy-6-methyl-[4,4′-bipyridine]-3-carboxamide], the IC50 in the experiment with DLD1 WT cells (Homo sapiens, DLD-1, 168 h) is > 10 µM; in the experiment with DLD1 BRCA2 (−/−) cells (Homo sapiens, DLD-1, 168 h), 0.001 to 0.1 µM.
Take `COc1cnc(Cl)cc1-c1cc(C)ncc1C(=O)Nc1nc2ncc(N3CC[C@@](C)(O)[C@@H](F)C3)nc2s1` (single isomer, unassigned) [Example 376, 2′-chloro-N-(6-((3S or R,4R or S)-3-fluoro-4-hydroxy-4-methylpiperidin-1-yl)thiazolo[4,5-b]pyrazin-2-yl)-5′-methoxy-6-methyl-[4,4′-bipyridine]-3-carboxamide]: the IC50 in the experiment on DLD1 WT cells (Homo sapiens, DLD-1, 168 h) was > 10 µM; with DLD1 BRCA2 (−/−) cells (Homo sapiens, DLD-1, 168 h), 0.001 to 0.1 µM.
On to `COc1cnc(Cl)cc1-c1cc(C)ncc1C(=O)Nc1nc2ncc(N3CCO[C@H](C)[C@@H]3C)nc2s1` (single isomer, unassigned) [Example 400, 2′-chloro-N-(6-((2R or S,3S or R)-2,3-dimethylmorpholino)thiazolo [4,5-b]pyrazin-2-yl)-5′-methoxy-6-methyl-[4,4′-bipyridine]-3-carboxamide], for which the IC50 in the experiment with DLD1 WT cells (Homo sapiens, DLD-1, 168 h) is > 10 µM; in the experiment with DLD1 BRCA2 (−/−) cells (Homo sapiens, DLD-1, 168 h), 0.001 to 0.1 µM.
As to `COc1cnc(Cl)cc1-c1cc(C)ncc1C(=O)Nc1nc2ncc([C@@H]3CCO[C@H](C)C3)nc2s1` (single isomer, unassigned) [Example 435, 2′-chloro-5′-methoxy-6-methyl-N-(6-((2R or S,4R or S)-2-methyltetrahydro-2H-pyran-4-yl)thiazolo[4,5-b]pyrazin-2-yl)-[4,4′-bipyridine]-3-carboxamide], the IC50 is > 10 µM in the experiment on DLD1 WT cells (Homo sapiens, DLD-1, 168 h) and 0.001 to 0.1 µM in the experiment on DLD1 BRCA2 (−/−) cells (Homo sapiens, DLD-1, 168 h).
As for `COc1cnc(Cl)cc1-c1cc(C)ncc1C(=O)Nc1nc2ncc(N3CCC(C)(O)C(F)C3)nc2s1` (centres unmarked) [Example 465, 2′-chloro-N-(6-(3-fluoro-4-hydroxy-4-methylpiperidin-1-yl)thiazolo[4,5-b]pyrazin-2-yl)-5′-methoxy-6-methyl-[4,4′-bipyridine]-3-carboxamide], the IC50 is > 10 µM in the experiment on DLD1 WT cells (Homo sapiens, DLD-1, 168 h) and 0.001 to 0.1 µM with DLD1 BRCA2 (−/−) cells (Homo sapiens, DLD-1, 168 h).
For `COc1cnc(Cl)cc1-c1cc(C)ncc1C(=O)Nc1nc2ncc(N3CCC(O)C(F)(F)C3)nc2s1` (single isomer, unassigned) [Example 458, (R or S)-2′-chloro-N-(6-(3,3-difluoro-4-hydroxypiperidin-1-yl)thiazolo[4,5-b]pyrazin-2-yl)-5′-methoxy-6-methyl-[4,4′-bipyridine]-3-carboxamide], the results for the IC50 with DLD1 WT cells and with DLD1 BRCA2 (−/−) cells were > 10 µM and 0.001 to 0.1 µM, respectively.
`COc1cnc(Cl)cc1-c1cc(C)ncc1C(=O)Nc1nc2ncc(N3CCC[C@@H](C)C3)nc2s1` [Example 485, (R)-2′-chloro-5′-methoxy-6-methyl-N-(6-(3-methylpiperidin-1-yl)thiazolo[4,5-b]pyrazin-2-yl)-[4,4′-bipyridine]-3-carboxamide]: the IC50 with DLD1 WT cells (Homo sapiens, DLD-1, 168 h) was > 10 µM; in the experiment with DLD1 BRCA2 (−/−) cells (Homo sapiens, DLD-1, 168 h), 0.1 to 0.25 µM.
On to `COc1cnc(Cl)cc1-c1cc(C)ncc1C(=O)Nc1nc2ncc(C3=CCC(OC(F)F)CC3)nc2s1` (centres unmarked) [Example 405, 2′-chloro-N-(6-(4-(difluoromethoxy)cyclohex-1-en-1-yl)thiazolo[4,5-b]pyrazin-2-yl)-5′-methoxy-6-methyl-[4,4′-bipyridine]-3-carboxamide], for which the IC50 in the experiment with DLD1 WT cells (Homo sapiens, DLD-1, 168 h) is > 10 µM; in the experiment on DLD1 BRCA2 (−/−) cells (Homo sapiens, DLD-1, 168 h), 0.001 to 0.1 µM.
On to `COc1cnc(Cl)cc1-c1cc(C2CC2)ncc1C(=O)Nc1nc2ncc(-c3ccnc(C)c3)nc2s1` [Example 445, 2′-chloro-6-cyclopropyl-5′-methoxy-N-(6-(2-methylpyridin-4-yl)thiazolo[4,5-b]pyrazin-2-yl)-[4,4′-bipyridine]-3-carboxamide], for which the IC50 with DLD1 WT cells (Homo sapiens, DLD-1, 168 h) is > 10 µM; in the experiment with DLD1 BRCA2 (−/−) cells (Homo sapiens, DLD-1, 168 h), 0.001 to 0.1 µM.
For the compound `COc1cnc(Cl)cc1-c1cc(C)ncc1C(=O)Nc1nc2ncc(N3CC[C@H](OC)[C@@H](F)C3)nc2s1` [Example 452, 2′-chloro-N-(6-((3S,4S)-3-fluoro-4-methoxypiperidin-1-yl)thiazolo[4,5-b]pyrazin-2-yl)-5′-methoxy-6-methyl-[4,4′-bipyridine]-3-carboxamide], the half-maximal inhibitory concentration (IC50) is > 10 µM with DLD1 WT cells (Homo sapiens, DLD-1, 168 h) and 0.001 to 0.1 µM in the experiment on DLD1 BRCA2 (−/−) cells (Homo sapiens, DLD-1, 168 h).
Regarding `COc1cnc(Cl)cc1-c1cc(C)ncc1C(=O)Nc1nc2ncc(N3CCC(C(C)(C)C#N)CC3)nc2s1` [Example 468, 2′-chloro-N-(6-(4-(2-cyanopropan-2-yl)piperidin-1-yl)thiazolo[4,5-b]pyrazin-2-yl)-5′-methoxy-6-methyl-[4,4′-bipyridine]-3-carboxamide], the IC50 with DLD1 WT cells (Homo sapiens, DLD-1, 168 h) lay in the range of 5 to 7.5 µM; in the experiment on DLD1 BRCA2 (−/−) cells (Homo sapiens, DLD-1, 168 h) it was 0.001 to 0.1 µM.
The like results for `COc1cnc(Cl)cc1-c1cc(C)ncc1C(=O)Nc1nc2ncc(N3CCO[C@H](C)C3)nc2s1` [Example 488, (R)-2′-chloro-5′-methoxy-6-methyl-N-(6-(2-methylmorpholino)thiazolo[4,5-b]pyrazin-2-yl)-[4,4′-bipyridine]-3-carboxamide] were, in that order, > 10 µM and 0.001 to 0.1 µM.
For `COc1cnc(Cl)cc1-c1cc(C)ncc1C(=O)Nc1nc2ncc(C3=CCC(OC(F)(F)F)CC3)nc2s1` (centres unmarked) [Example 420, 2′-chloro-5′-methoxy-6-methyl-N-(6-(4-(trifluoromethoxy)cyclohex-1-en-1-yl)thiazolo[4,5-b]pyrazin-2-yl)-[4,4′-bipyridine]-3-carboxamide], the half-maximal inhibitory concentration (IC50) was in the range of 7.5 to 10 µM in the experiment with DLD1 WT cells (Homo sapiens, DLD-1, 168 h) and 0.001 to 0.1 µM with DLD1 BRCA2 (−/−) cells (Homo sapiens, DLD-1, 168 h).
As for `COc1cnc(Cl)cc1-c1cc(C)ncc1C(=O)Nc1nc2ncc(N3CCOCC3)nc2s1` [Example 483, 2′-chloro-5′-methoxy-6-methyl-N-(6-morpholinothiazolo[4,5-b]pyrazin-2-yl)-[4,4′-bipyridine]-3-carboxamide], the IC50 was > 10 µM in the experiment on DLD1 WT cells (Homo sapiens, DLD-1, 168 h) and 0.1 to 0.25 µM in the experiment on DLD1 BRCA2 (−/−) cells (Homo sapiens, DLD-1, 168 h).
On to `COc1cnc(Cl)cc1-c1cc(C)ncc1C(=O)Nc1nc2ncc([C@@H]3CCN(CC(F)(F)F)C3)nc2s1` (single isomer, unassigned) [Example 365, (R or S)-2′-chloro-5′-methoxy-6-methyl-N-(6-(1-(2,2,2-trifluoroethyl)pyrrolidin-3-yl)thiazolo[4,5-b]pyrazin-2-yl)-[4,4′-bipyridine]-3-carboxamide], for which the IC50 in the experiment with DLD1 WT cells (Homo sapiens, DLD-1, 168 h) was > 10 µM; in the experiment with DLD1 BRCA2 (−/−) cells (Homo sapiens, DLD-1, 168 h), 0.001 to 0.1 µM.
The like results for `COc1cnc(Cl)cc1-c1cc(C)ncc1C(=O)Nc1nc2ncc([C@H]3CCO[C@H](C)C3)nc2s1` (single isomer, unassigned) [Example 431, 2′-chloro-5′-methoxy-6-methyl-N-(6-((2R or S,4S or R)-2-methyltetrahydro-2H-pyran-4-yl)thiazolo[4,5-b]pyrazin-2-yl)-[4,4′-bipyridine]-3-carboxamide] were, in that order, > 10 µM and 0.001 to 0.1 µM.
Regarding `COc1cnc(Cl)cc1-c1cc(C)ncc1C(=O)Nc1nc2ncc(N3CC[C@](C)(OC)[C@H](F)C3)nc2s1` (single isomer, unassigned) [Example 362, 2′-chloro-N-(6-((3R or S,4S or R)-3-fluoro-4-methoxy-4-methylpiperidin-1-yl)thiazolo[4,5-b]pyrazin-2-yl)-5′-methoxy-6-methyl-[4,4′-bipyridine]-3-carboxamide], the IC50 with DLD1 WT cells (Homo sapiens, DLD-1, 168 h) is > 10 µM; in the experiment on DLD1 BRCA2 (−/−) cells (Homo sapiens, DLD-1, 168 h), 0.1 to 0.25 µM.
For `COc1cnc(Cl)cc1-c1cc(C)ncc1C(=O)Nc1nc2ncc(N3CCC(C(F)(F)F)CC3)nc2s1` [Example 472, 2′-chloro-5′-methoxy-6-methyl-N-(6-(4-(trifluoromethyl)piperidin-1-yl)thiazolo[4,5-b]pyrazin-2-yl)-[4,4′-bipyridine]-3-carboxamide], the IC50 in the experiment with DLD1 WT cells (Homo sapiens, DLD-1, 168 h) was 5 to 7.5 µM; in the experiment on DLD1 BRCA2 (−/−) cells (Homo sapiens, DLD-1, 168 h), 0.001 to 0.1 µM.
